In brackets after ≈: the same amount, converted by molar mass. Where two headings read alike, the source gives them in different places. Marks after values point to notes of the source that are not given here.
Tests used:
PA = conditions: cited from earlier work
CF patients = conditions: cited from earlier work
[1] = system: Pseudomonas aeruginosa (PA) isolates; experiment: Clinical Trial I: MIC for PA isolates; assay type: cell-based; conditions: for MIC50 / MIC90 / MIC: Pseudomonas aeruginosa
[2] = Clinical Trial II: sputum and plasma aztreonam concentrations; assay type: in vivo; conditions: human, sputum, inhaled, 75 mg, sputum aztreonam concentration, median (range), 10 minutes postdose
[3] = system: Pseudomonas aeruginosa (PA) isolates; experiment: Clinical Trial II: MIC of aztreonam for PA isolates; assay type: cell-based
[4] = Colistin, N = 62, 80 BID/28 days

## Colistin
PA; [4]
  PA Density Change (Log10): −0.6 Log10
CF patients; [4]
  FEV1 Change (relative change in FEV1 % predicted, comparison to control after 28 days of therapy): 0%^b

## NC[C@H]1O[C@H](O[C@H]2[C@H](O)[C@@H](O[C@H]3O[C@H](CO)[C@@H](O)[C@H](N)[C@H]3O)[C@H](N)C[C@@H]2N)[C@H](N)C[C@@H]1O [tobramycin]
PA; Tobramycin 600 TID, N = 36
  PA Density Change (Log10): −2.0 Log10
CF patients; 600 TID, N = 36
  FEV1 Change (absolute change in FEV1 % predicted, comparison to control after 28 days of therapy): 10%^a
[1]; Days −28 to 56
  MIC50 and MIC90 of tobramycin for PA isolates, change: ≤ 4 fold
[1]; isolates of AZLI-BID group, Day −28, read-out: MIC50 of tobramycin for all PA isolates
  MIC50: 1 µg/mL (≈ 2.14 µM)
[1]; isolates of AZLI-BID group, Day −28, read-out: MIC90 of tobramycin for all PA isolates
  MIC90: 16 µg/mL (≈ 34.2 µM)
[1]; isolates of AZLI-Pooled group, Day −28, read-out: MIC50 of tobramycin for all PA isolates
  MIC50: 1 µg/mL (≈ 2.14 µM)
[1]; isolates of AZLI-Pooled group, Day −28, read-out: MIC90 of tobramycin for all PA isolates
  MIC90: 32 µg/mL (≈ 68.4 µM)
[1]; isolates of AZLI-TID group, Day −28, read-out: MIC50 of tobramycin for all PA isolates
  MIC50: 2 µg/mL (≈ 4.28 µM)
[1]; isolates of AZLI-TID group, Day −28, read-out: MIC90 of tobramycin for all PA isolates
  MIC90: 64 µg/mL (≈ 137 µM)
[1]; isolates of Placebo group, Day −28, read-out: MIC50 of tobramycin for all PA isolates
  MIC50: 2 µg/mL (≈ 4.28 µM)
[1]; isolates of Placebo group, Day −28, read-out: MIC90 of tobramycin for all PA isolates
  MIC90: 256 µg/mL (≈ 548 µM)

## C[C@H]1[C@H](NC(=O)/C(=N\OC(C)(C)C(=O)O)c2csc(N)n2)C(=O)N1S(=O)(=O)O [aztreonam]
[2]; Day 0
  concentration at 10 min: 530000 ng/g
[2]; Day 14
  concentration at 10 min: 677000 ng/g
[2]; Day 28
  concentration at 10 min: 451000 ng/g
[3]; read-out: MIC50 of aztreonam for all PA isolates, isolates of AZLI group, baseline
  MIC50: 4 µg/mL
[3]; read-out: MIC50 of aztreonam for all PA isolates, isolates of Placebo group, baseline
  MIC50: 2 µg/mL
[3]; read-out: MIC90 of aztreonam for all PA isolates, isolates of AZLI group, baseline
  MIC90: 128 µg/mL
[3]; read-out: MIC90 of aztreonam for all PA isolates, isolates of Placebo group, baseline
  MIC90: 64 µg/mL
[3]; read-out: Maximum MIC of aztreonam for all PA isolates, isolates of AZLI group, baseline
  MIC: > 2050 µg/mL
[3]; read-out: Maximum MIC of aztreonam for all PA isolates, isolates of Placebo group, baseline
  MIC: 256 µg/mL
[3]; read-out: Minimum MIC of aztreonam for all PA isolates, isolates of Placebo group, baseline
  MIC: ≤ 1 µg/mL
[1]; 0 h, read-out: MIC50 of aztreonam for all PA isolates, isolates of AZLI-BID group, Day 0
  MIC50: 2 µg/mL (≈ 4.59 µM)
[1]; 0 h, read-out: MIC50 of aztreonam for all PA isolates, isolates of AZLI-Pooled group, Day 0
  MIC50: 2 µg/mL (≈ 4.59 µM)
[1]; 0 h, read-out: MIC50 of aztreonam for all PA isolates, isolates of AZLI-TID group, Day 0
  MIC50: 2 µg/mL (≈ 4.59 µM)
[1]; 0 h, read-out: MIC50 of aztreonam for all PA isolates, isolates of Placebo group, Day 0
  MIC50: ≤ 1 µg/mL
[1]; 0 h, read-out: MIC90 of aztreonam for all PA isolates, isolates of AZLI-BID group, Day 0
  MIC90: 64 µg/mL (≈ 147 µM)
[1]; 0 h, read-out: MIC90 of aztreonam for all PA isolates, isolates of AZLI-Pooled group, Day 0
  MIC90: 32 µg/mL (≈ 73.5 µM)
[1]; 0 h, read-out: MIC90 of aztreonam for all PA isolates, isolates of AZLI-TID group, Day 0
  MIC90: 32 µg/mL (≈ 73.5 µM)
[1]; 0 h, read-out: MIC90 of aztreonam for all PA isolates, isolates of Placebo group, Day 0
  MIC90: 64 µg/mL (≈ 147 µM)
[1]; 0 h, read-out: Maximum MIC of aztreonam for all PA isolates, isolates of AZLI-BID group, Day 0
  MIC: > 2050 µg/mL
[1]; 0 h, read-out: Maximum MIC of aztreonam for all PA isolates, isolates of AZLI-Pooled group, Day 0
  MIC: > 2050 µg/mL
[1]; 0 h, read-out: Maximum MIC of aztreonam for all PA isolates, isolates of AZLI-TID group, Day 0
  MIC: 1020 µg/mL
[1]; 0 h, read-out: Maximum MIC of aztreonam for all PA isolates, isolates of Placebo group, Day 0
  MIC: 1020 µg/mL
[1]; 0 h, read-out: Minimum MIC of aztreonam for all PA isolates, isolates of AZLI-BID group, Day 0
  MIC: ≤ 1 µg/mL
[1]; 0 h, read-out: Minimum MIC of aztreonam for all PA isolates, isolates of AZLI-Pooled group, Day 0
  MIC: ≤ 1 µg/mL
[1]; 0 h, read-out: Minimum MIC of aztreonam for all PA isolates, isolates of AZLI-TID group, Day 0
  MIC: ≤ 1 µg/mL
[1]; 0 h, read-out: Minimum MIC of aztreonam for all PA isolates, isolates of Placebo group, Day 0
  MIC: ≤ 1 µg/mL

B1: Pulmozyme: Pulmozyme registration trial comparator (protein, UniProt P24855 23-282, looked up)
Deoxyribonuclease-1: LKIAAFNIQTFGETKMSNATLVSYIVQILSRYDIALVQEVRDSHLTAVGKLLDNLNQDAPDTYHYVVSEPLGRNSYKERYLFVYRPDQVSAVDSYYYDDGCEPCGNDTFNREPAIVRFFSRFTEVREFAIVPLHAAPGDAVAEIDALYDVYLDVQEKWGLEDVMLMGDFNAGCSYVRPSQWSSIRLWTSPTFQWLIPDSADTTATPTHCAYDRIVVAGMLLRGAVVPDSALPFNFQAAYGLSDQLAQAISDHYPVEVMLK
CF patients; 2.5 mg BID/24 weeks
  FEV1 Change (percent change in FEV1 (L), comparison to control after 24 weeks of therapy): 5.8 ± 0.7^c %
CF patients; 2.5 mg TID/24 weeks
  FEV1 Change (percent change in FEV1 (L), comparison to control after 24 weeks of therapy): 5.6 ± 0.7^c %

— patent US7973029B2 (Gilead Sciences, Inc., priority 2007, dated 2011)
